Test [1] deals with Heme-binding protein A (Actinobacillus pleuropneumoniae serovar 9 str. CVJ13261, UniProt A3N3U8). Nature of the test: Isothermal Titration Calorimetry (ITC). The note with it: pH 7.4; 37 °C. How it is done:
(§1) Purified test proteins were dialyzed overnight against 10 mM Tris-HCl, pH 7.4, at 4°C. The resultant dialysis buffer was then used to dissolve the test compounds. Titrations were always preceded by an initial injection of 3 μL and were carried out using 10-μL injections applied 300 s apart. The sample was stirred at a speed of 400 rpm throughout.

In test [2] the target is T1, Heme-binding protein A (Glaesserella parasuis, UniProt B8F653).
T1 sequence (B8F653 whole entry): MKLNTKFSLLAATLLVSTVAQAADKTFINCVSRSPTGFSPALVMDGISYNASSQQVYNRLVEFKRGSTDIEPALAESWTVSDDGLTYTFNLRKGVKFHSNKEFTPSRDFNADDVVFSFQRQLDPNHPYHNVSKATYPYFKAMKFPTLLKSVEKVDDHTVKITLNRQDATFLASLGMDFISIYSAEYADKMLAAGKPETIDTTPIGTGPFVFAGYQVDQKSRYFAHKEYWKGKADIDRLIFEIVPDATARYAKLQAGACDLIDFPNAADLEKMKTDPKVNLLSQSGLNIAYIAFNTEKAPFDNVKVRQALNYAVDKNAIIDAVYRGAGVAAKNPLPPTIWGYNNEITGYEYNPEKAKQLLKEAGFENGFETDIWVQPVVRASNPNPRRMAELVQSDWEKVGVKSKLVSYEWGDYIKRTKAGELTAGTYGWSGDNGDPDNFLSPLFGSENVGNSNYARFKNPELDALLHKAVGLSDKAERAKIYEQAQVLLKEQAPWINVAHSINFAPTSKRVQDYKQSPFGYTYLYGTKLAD
Nature of the test: Isothermal Titration Calorimetry (ITC). The note with it: pH 7.4; 37 °C. On the procedure:
as §1

Heme-binding protein A (Actinobacillus pleuropneumoniae serovar 9 str. CVJ13261, UniProt A3N3U8), sequence (A3N3U8 whole entry): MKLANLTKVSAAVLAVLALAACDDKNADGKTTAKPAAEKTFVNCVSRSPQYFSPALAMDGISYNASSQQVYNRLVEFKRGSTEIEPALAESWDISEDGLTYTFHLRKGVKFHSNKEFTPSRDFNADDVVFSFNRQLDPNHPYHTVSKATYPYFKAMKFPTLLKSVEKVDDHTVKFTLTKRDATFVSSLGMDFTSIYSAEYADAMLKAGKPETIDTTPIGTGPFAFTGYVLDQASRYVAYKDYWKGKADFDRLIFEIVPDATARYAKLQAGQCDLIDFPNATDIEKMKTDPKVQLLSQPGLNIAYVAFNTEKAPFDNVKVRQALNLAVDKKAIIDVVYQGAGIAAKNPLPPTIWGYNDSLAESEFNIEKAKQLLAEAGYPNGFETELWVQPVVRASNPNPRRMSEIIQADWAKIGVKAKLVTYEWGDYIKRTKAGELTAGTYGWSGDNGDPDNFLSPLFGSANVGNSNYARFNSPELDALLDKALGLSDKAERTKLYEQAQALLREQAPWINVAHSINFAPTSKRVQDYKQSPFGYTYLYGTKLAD

As for `CSC[C@H](NC(=O)CC[C@H](N)C(=O)O)C(=O)NCC(=O)O` [S-methylglutathione], the Kd in test [1] turned out to be 1170 nM; in test [2], 900 nM. Turning to `N[C@@H](CCC(=O)N[C@@H](CS)C(=O)NCC(=O)O)C(=O)O` [GLUTATHIONE], the Kd in test [2] came to 1900 nM.

Values taken from BindingDB's records for doi:10.1186/1471-2091-12-59 (Ghent University, 2011).
